From patent publication US9593149B2, “Amylin and calcitonin receptor agonist” (Novo Nordisk A/S, priority 2014, dated 2017)
Peptide text beside a SMILES is read from it. * marks the point of attachment. C18 diacid = O=C(O)CCCCCCCCCCCCCCCCC(=O)*

Legend:
Assay (X) pK, T½ in rat = assay type: in vivo, Sprague Dawley rats
Experimental: Assay (X)—pK—Determination of T½ in Rat
Pharmacokinetic (PK) studies rats were conducted in order to determine the T½ of mimylin peptide after i.v. and s.c. administration.
T½ values of the mimylin derivates of the invention is determined by pharmacokinetic studies in Sprague Dawley male rats, from Taconic Europe and the principles of laboratory animal care are followed.
An acclimatisation period of approximately 7 days was allowed before the animals entered the study. At start of the acclimatisation period the rats were in the weight range of 250-400 g.
The studies were conducted in an animal room which was illuminated to give a cycle of approximately 12 hours light and 12 hours darkness. The animals were group housed and had food and water ad lib. The animals were weighed on the days of dosing.
In the present studies the test substances were administered subcutaneously or intravenously in approximately 20 nmol/kg dose. The animals received a single subcutaneous injection to the neck for subtaneous administration or directly into the tail vein for intravenous administration. Each test substance was given to typically three but in some cases two or four animals.
A full plasma concentration-time profile, employing 8-10 sampling points, was obtained from each animal. In example blood samples were collected according to the following schedule: After subcutaneous or intravenous administration:
At each sampling time, 0.08 to 0.10 ml of blood was drawn from each animal. The blood samples were taken in the sublingual vein via venous puncture and the use of a capillary tube.
The blood samples were stabilised with EDTA. Blood samples were kept on ice for max 20 min. before centrifugation. Plasma was separated using centrifugation (i.e. at 4° C., 10 min., 1500G) and was immediately transferred to Micronic tubes or PCR plates. Approximately 40 μl plasma was transferred and was stored at −20° C. until assayed. The plasma samples were assayed for the content of mimylin compound by LCMS
The plasma concentration-time profiles were analysed by a non-compartmental pharmacokinetic analysis (NCA) using Phoenix WinNonlin 6.3 (Pharsight Inc., Mountain View, Calif., USA). NCA was performed using the individual plasma concentration-time profiles from each animal. T½ is the terminal half-life=In2/λz and was determined from λz, the first order rate constant associated with the terminal (log-linear) portion of the curve, estimated by linear regression of time vs. log concentration.

[1] = Assay (XV) subcutaneous PK in LYD-pigs, co-formulated or co-dosed with liraglutide; assay type: in vivo; conditions: for AUC/D / Cmax/D / T½: LYD-pigs s.c.
Experimental: The studies were performed in female LYD pigs of SPF origin delivered from Lars Jonson, Hillerødvej 70, Lynge.
Before the animals arrived, the animal rooms and pens were cleaned and disinfected with Virkon S. During the study, the animal rooms were cleaned and washed regularly.
The pigs were group housed during the acclimatisation period. The pigs were fitted with a central venous catheter while under anaesthesia and after the single housed after catheterization in pens ≧3.1 m^2 with straw as bedding. The temperature in the rooms was set at 20−23° C. and the relative humidity to 30-70%. The rooms were illuminated to give a cycle of 12 hours light and 12 hours darkness. Light was on from 07.00 to 19.00 h.
The formulations was prepared similarly and filled in cartridges in all cases.
The animals were dosed subcutaneously as follows.
The s.c. dosing was performed in 4 mm depth, in a site of injection which was secured on beforehand by ultrasound to avoid muscular tissue or heavy vascularization. Dosing was made using NovoPen®4 and needle Novofine 28 G and a needle stopper to ensure 4 mm depth of injection. The needle was kept in the subcutis for 10 seconds after the injection to secure deposition of compound. […] The co-formulation was administered as one injection. Study was performed as a cross over study with adequate wash out between dosings.
Blood was sampled at predefined time points for up till 15 days post dosing to adequately cover the full plasma concentration-time profile of the mimylin derivative. Blood samples were drawn from a central venous catheter to jugularis made through the catheter which was afterwards flushed with 10 ml 0.9% NaCl.
For each blood sampling time point approximately 0.8 mL of whole blood was collected in a 1.5 mL EDTA coated tube, and the tube was gently turned to allowing mixing of the sample with the anticoagulant. Blood samples (for example 0.8 mL) were collected in EDTA buffer (8 mM) and then centrifuged at 4° C. and 2000 G for 10 minutes. Plasma was pipetted into Micronic tubes on dry ice, and kept at −20° C. until analysis.
Individual plasma concentration-time profiles were analysed by a non-compartmental model in Phoenix WinNonlin version 6.3 (Pharsight Inc., Mountain View, Calif., USA).
The area under the plasma concentration versus time curve (AUC, [time×concentration]) was calculated (by the Pharsight programme) after subcutaneous administration, typically until 240-288 hours post dosing, or until last measured concentration. The AUC was calculated and given as AUCinf-pred and dose normalized.
Results of co-formulation studies in LYD-pigs are summarized below

[2] = Co-formulation liraglutide + Ex #2

PK rat iv T½ (Assay (X) pK, T½ in rat; i.v.): 12 h
PK rat sc T½ (Assay (X) pK, T½ in rat; s.c.): 13 h
AUC/D ([1]; Co-dosing liraglutide + Ex #2): 712 kg·h/L
Cmax/D ([1]; Co-dosing liraglutide + Ex #2): 6.9 kg/L
T½ ([1]; Co-dosing liraglutide + Ex #2): 67 h
AUC/D [1, 2]: 732 kg·h/L
Cmax/D [1, 2]: 5.8 kg/L
T½ [1, 2]: 67 h
SMILES: CC(C)C[C@H](NC(=O)[C@H](C)NC(=O)[C@H](C)NC(=O)[C@@H](NC(=O)[C@H](CO)NC(=O)[C@H](CC(C)C)NC(=O)[C@H](CCC(=O)O)NC(=O)[C@H](CO)NC(=O)[C@H](C)NC(=O)[C@H](CCC(=O)O)NC(=O)CCCCCCCCCCCCCCCCC(=O)O)[C@@H](C)O)C(=O)NCC(=O)N[C@@H](CCCNC(=N)N)C(=O)N[C@@H](CC(C)C)C(=O)N[C@@H](CO)C(=O)N[C@@H](C)C(=O)N[C@@H](CCC(=O)O)C(=O)N[C@@H](CC(C)C)C(=O)N[C@@H](Cc1cnc[nH]1)C(=O)N[C@@H](CCC(=O)O)C(=O)N[C@@H](CC(C)C)C(=O)N[C@@H](C)C(=O)N[C@H](C(=O)N[C@@H](CC(C)C)C(=O)N1CCC[C@H]1C(=O)N[C@@H](CCCNC(=N)N)C(=O)N[C@H](C(=O)N[C@@H](CCC(=O)O)C(=O)N[C@H](C(=O)NCC(=O)N1CCC[C@H]1C(=O)N[C@@H](CCC(=O)O)C(=O)N[C@@H](CO)C(=O)N1CCC[C@H]1C(N)=O)[C@@H](C)O)[C@@H](C)O)[C@@H](C)O [Ex. #2, [N-terminal(C18 diacid)]mimylin] ({C18 diacid}-EASELSTAALGRLSAELHELATLPRTETGPESP-NH2)
effect on PK profile of the co-formulated peptide ([1]; administered as co-formulations to LYD pigs): do not affect the PK profile of liraglutide
